Holding throughout (test): Growth inhibition of yeast, IC 50% determination
What all share (assay type): cell-based

The subject of experiment [1] is Hansenula anomala. Particulars: Hansenula anomala (pathogen -). The text has this:
(§1) One method of determining the microbiological activity of the compounds according to the invention on yeasts is the determination of the inhibitory concentration 50% (IC 50%).

In experiment [2] the test system is Sacch. cerevisiae 1. The conditions noted are these: Saccharomyces cerevisiae; Sacch. cerevisiae 1 (pathogen (+)).
Description: as §1

Experiment [3] has as its system Geotrichum capitum. The conditions noted are these: Geotrichum capitum (pathogen +).
Description: as §1

Experiment [4] has as its system Cryptococcus neoformans 1. Particulars: Cryptococcus neoformans 1 (pathogen +).
Description: as §1

The test system of experiment [5] is Sacch. uvarum. Particulars: Sacch. uvarum (pathogen (+)).
Description: as §1

Experiment [6] relates to Metschnikowia pulch. The conditions noted are these: Metschnikowia pulch (pathogen -).
Description: as §1

The test system of experiment [7] is Cryptococcus neoformans 2. The conditions noted are these: Cryptococcus neoformans 2 (pathogen +).
Description: as §1

The subject of experiment [8] is Sacch. fragilis. Particulars: Sacch. fragilis (pathogen (+)).
Description: as §1

For experiment [9], the system named is Cand. albicans. Particulars: Candida albicans; Cand. albicans (pathogen +).
Description: as §1

Experiment [10] deals with Sacch. rouxii. Particulars: Sacch. rouxii (pathogen (+)).
Description: as §1

The test system of experiment [11] is Cand. krusei. Particulars: Pichia kudriavzevii; Cand. krusei (pathogen +).
Description: as §1

For experiment [12], the system named is Sacch. cerevisiae 2. Particulars: Saccharomyces cerevisiae; Sacch. cerevisiae 2 (pathogen (+)).
Description: as §1

Experiment [13] deals with Cand. curvata. The conditions noted are these: Cand. curvata (pathogen +).
Description: as §1

The test system of experiment [14] is Rhodotorula spec. Particulars: Rhodotorula spec. (pathogen -).
Description: as §1

Experiment [15] deals with Cand. parapsilosis. The conditions noted are these: Lodderomyces parapsilosis; Cand. parapsilosis (pathogen +).
Description: as §1

Experiment [16] concerns Cand. pseudotropicalis. Particulars: Kluyveromyces marxianus; Cand. pseudotropicalis (pathogen +).
Description: as §1

Converted amounts (≈) assume the structure as drawn.

On to `CSC(=NC#N)N1CCN(c2ccc(OC[C@H]3CO[C@](Cn4ccnc4)(c4ccc(Cl)cc4Cl)O3)cc2)CC1` (relative stereo) [Example 2, cis-1-Cyanimino-methylthio-methylene-4-[4[[2-(2,4-dichlorophenyl)-2-(1H-imidazol-1-ylmethyl)-1,3-dioxolan-4-yl]-methoxy]-phenyl]-piperazine], for which the IC50 in experiment [1] came to 0.00125 µg/mL (≈ 0.00213 µM); in experiment [2], 1.25 µg/mL (≈ 2.13 µM); in [3], 0.125 µg/mL (≈ 0.213 µM); in experiment [4] it was 0.0125 µg/mL (≈ 0.0213 µM); in experiment [5], 1.25 µg/mL (≈ 2.13 µM); in experiment [6], 0.00125 µg/mL (≈ 0.00213 µM). Further, the IC50 stood at 0.125 µg/mL (≈ 0.213 µM) in experiment [7]; 0.0125 µg/mL (≈ 0.0213 µM) in experiment [8]; 0.00125 µg/mL (≈ 0.00213 µM) in [9]; 0.00125 µg/mL (≈ 0.00213 µM) in [10]; 0.125 µg/mL (≈ 0.213 µM) in experiment [11]; 1.25 µg/mL (≈ 2.13 µM) in [12]. The IC50 in [13] stood at 0.125 µg/mL (≈ 0.213 µM); in experiment [14], 1.25 µg/mL (≈ 2.13 µM); in [15], 0.0125 µg/mL (≈ 0.0213 µM); in [16], 0.00125 µg/mL (≈ 0.00213 µM).

(Values after US4634700A, “1,3-dioxolanyl derivatives, a process for their preparation, their use and pharmaceutical preparations containing these compounds” (Ludwig Heumann & Co., GmbH, priority 1984, dated 1987).)
